Literature values, collected in patent publication US6875793B2, “Once-a-day controlled release sulfonylurea formulation” (Penwest Pharmaceuticals Co., priority 1997, dated 2005).
One block for each compound: values may come before it.

Legend:
insulin secretion = settings: after an oral dose, diabetic patients

SMILES: CC(=O)c1ccc(S(=O)(=O)NC(=O)NC2CCCCC2)cc1 [Acetohexamide]
solubility in alcohol (alcohol): slightly soluble
solubility in alkali (alkali, e.g., 0.1N sodium hydroxide, dilute solutions of alkali hydroxides): soluble
solubility in water (water): practically insoluble

SMILES: Cc1cnc(C(=O)NCCc2ccc(S(=O)(=O)NC(=O)NC3CCCCC3)cc2)cn1 [Glipizide]
time to insulinotropic response to a meal (insulin secretion): ≤ 30 min

SMILES: COc1ccc(Cl)cc1C(=O)NCCc1ccc(S(=O)(=O)NC(=O)NC2CCCCC2)cc1 [Glyburide]
solubility in organic solvents (organic solvents): soluble
solubility in water (water): sparingly soluble

SMILES: Cc1ccc(S(=O)(=O)NC(=O)NN2CCCCCC2)cc1 [Tolazamide]
solubility at pH 6.0 (mean urinary pH) (pH 6.0): 27.8 mg per 100 ml
solubility in water (water): relatively insoluble

The remaining lines, values ahead:

solubility in water at pH 6.0 (water, pH 6.0): 2.2 mg/ml
solubility in water at pH 7.3 (water, pH 7.3): practically non-soluble
SMILES: CCCNC(=O)NS(=O)(=O)c1ccc(Cl)cc1 [Chlorpropamide]

solubility in water (water): practically insoluble
SMILES: CCCCNC(=O)NS(=O)(=O)c1ccc(C)cc1 [Tolbutamide]
